Legend:
Type in all cases: in vivo
[1] = system: Alopecurus myosuroides (ALOMY); assay: Example B pre-emergence herbicidal activity, glasshouse pot test; settings: 312 h, rate 250 g/ha, evaluated after 13 days, read-out: Pre-emergence activity ALOMY (100=total damage to plant; 0=no damage to plant)
Method: (§1) Seeds of a variety of test species were sown in standard soil in pots. After cultivation for one day (pre-emergence) or after 8 days cultivation (post-emergence) under controlled conditions in a glasshouse (at 24/16° C., day/night; 14 hours light; 65% humidity), the plants were sprayed with an aqueous spray solution derived from the formulation of the technical active ingredient in acetone/water (50:50) solution containing 0.5% Tween 20 (polyoxyethelyene sorbitan monolaurate, CAS RN 9005-64-5). The test plants were then grown in a glasshouse under controlled conditions in a glasshouse (at 24/16° C., day/night; 14 hours light; 65% humidity) and watered twice daily. After 13 days for pre and post-emergence, the test was evaluated (100=total damage to plant; 0=no damage to plant).
(§2) Alopecurus myosuroides (ALOMY), Avena fatua (AVEFA), Setaria faberi (SETFA), Echinochloa crus-galli (ECHCG), Solanum nigrum (SOLNI) and Amaranthus retroflexus (AMARE)

[2] = system: Amaranthus retroflexus (AMARE); assay: as above; settings: 312 h, rate 250 g/ha, evaluated after 13 days, read-out: Pre-emergence activity AMARE (100=total damage to plant; 0=no damage to plant)
Method: as §1, §2

[3] = system: Echinochloa crus-galli (ECHCG); assay: as above; settings: 312 h, rate 250 g/ha, evaluated after 13 days, read-out: Pre-emergence activity ECHCG (100=total damage to plant; 0=no damage to plant)
Method: as §1, §2

Setaria faberi (SETFA) [4] = assay: as above; settings: 312 h, rate 250 g/ha, evaluated after 13 days, read-out: Pre-emergence activity SETFA (100=total damage to plant; 0=no damage to plant)
Method: as §1, §2

Avena fatua (AVEFA) [5] = assay: as above; settings: 312 h, rate 250 g/ha, evaluated after 13 days, read-out: Pre-emergence activity AVEFA (100=total damage to plant; 0=no damage to plant)
Method: as §1, §2

[6] = system: Alopecurus myosuroides (ALOMY); assay: Example B post-emergence herbicidal activity, glasshouse pot test; settings: 312 h, rate 250 g/ha, evaluated after 13 days, read-out: Post-emergence activity ALOMY (100=total damage to plant; 0=no damage to plant)
Method: as §1, §2

[7] = system: Amaranthus retroflexus (AMARE); assay: as above; settings: 312 h, rate 250 g/ha, evaluated after 13 days, read-out: Post-emergence activity AMARE (100=total damage to plant; 0=no damage to plant)
Method: as §1, §2

[8] = system: Echinochloa crus-galli (ECHCG); assay: as above; settings: 312 h, rate 250 g/ha, evaluated after 13 days, read-out: Post-emergence activity ECHCG (100=total damage to plant; 0=no damage to plant)
Method: as §1, §2

Setaria faberi (SETFA) [9] = assay: as above; settings: 312 h, rate 250 g/ha, evaluated after 13 days, read-out: Post-emergence activity SETFA (100=total damage to plant; 0=no damage to plant)
Method: as §1, §2

Avena fatua (AVEFA) [10] = assay: as above; settings: 312 h, rate 250 g/ha, evaluated after 13 days, read-out: Post-emergence activity AVEFA (100=total damage to plant; 0=no damage to plant)
Method: as §1, §2

Row | SMILES | pest or weed control at 250 g/ha [1] | pest or weed control at 250 g/ha [2] | pest or weed control at 250 g/ha [3] | pest or weed control at 250 g/ha (Setaria faberi (SETFA) [4]) | pest or weed control at 250 g/ha (Avena fatua (AVEFA) [5]) | pest or weed control at 250 g/ha [6] | pest or weed control at 250 g/ha [7] | pest or weed control at 250 g/ha [8] | pest or weed control at 250 g/ha (Setaria faberi (SETFA) [9]) | pest or weed control at 250 g/ha (Avena fatua (AVEFA) [10])
1 | CCc1ccc(-c2cnc(Cl)cc2C)cc1C1=C(O)C(C)(C)OC(C)(C)C1=O [Compound A-73] | 0% | 0% | 10% | 20% | 0% | 20% | 0% | 90% | 90% | 0%
2 | CCc1ccc(-c2ccc(Cl)cc2)cc1C1=C(O)[C@@]2(CC)CC[C@H](O2)C1=O [Compound A-79] | 40% | 0% | 80% | 100% | 40% | 80% | 0% | 100% | 100% | 50%
3 | CCc1ccc(-c2ccc(Cl)c([N+](=O)[O-])c2)cc1C1=C(O)C(C)(C)OC(C)(C)C1=O [Compound A-136] | 20% | 0% | 90% | 30% | 80% | 80% | 0% | 100% | 70% | 100%
4 | CCc1ccc(-c2ccc(Cl)c(F)c2)cc1C1=C(O)C(C)(C)S(=O)(=O)C(C)(C)C1=O [Compound C-13] | 20% | 0% | 30% | 80% | 90% | 80% | 20% | 100% | 100% | 90%
5 | CCOc1ccc(-c2ccc(Cl)cc2Cl)cc1C1=C(O)C(C)(C)OC(C)(C)C1=O [Compound A-87] | 0% | 0% | 0% | 0% | 0% | 10% | 0% | 80% | 80% | 0%
6 | CC1(C)OC(C)(C)C(O)=C(c2cc(-c3ccc(Cl)cc3)ccc2Br)C1=O [Compound A-149] | 60% | 0% | 100% | 90% | 30% | 90% | 20% | 100% | 100% | 70%
7 | CCc1ccc(-c2ccc(Cl)cc2)cc1C1=C(O)C(C)(C)OC(C)(C)C1=O [Compound A-4] | 70% | 20% | 100% | 100% | 70% | 90% | 20% | 100% | 100% | 80%
8 | CCc1ccc(-c2cc(F)c(Cl)c(F)c2)cc1C1=C(O)C(C)(C)OC(C)(C)C1=O [Compound A-152] | 70% | 0% | 100% | 100% | 90% | 100% | 0% | 100% | 100% | 100%

From patent US8680012B2, “4-phenyl-pyrane-3,5-diones,4-phenyl-thiopyrane-3,6-diones and cyclohexanetriones as novel herbicides” (Syngenta Crop Protection LLC, priority 2006, dated 2014)
